{"source": "patent US10723728B2", "about": "“Prodrugs of Nh-acidic compounds” (ALKERMES PHARMA IRELAND LIMITED, priority 2009, dated 2020)", "key": {"[1]": {"assay": "Pharmacokinetic evaluation of prodrugs in rats following intramuscular injection", "type": "in vivo, Male Sprague-Dawley rats", "conditions": "rat, IM injection", "procedure": "Male Sprague-Dawley rats (Charles River Laboratories, Wilmington, Mass.) were obtained. Approximately 24 rats were used in each study. Rats were approximately 350-375 g at time of arrival. Rats were housed 2 per cage with ad libitum chow and water. Environmental conditions in the housing room: 64-67 OF, 30% to 70% relative humidity, and 12:12-h light:dark cycle. All experiments were approved by the institutional animal care and use committee.\n(§1) Rats were dosed IM by means of a 25 gauge, ⅝ inch needle with 1 cc syringe 0.3 mL suspension was withdrawn from the vial containing the test compound (see Table E). The […] was injected in the muscles of the hind limb after anesthesia with isoflourane. Blood samples were collected via a lateral tail vein after brief anesthesia with Isoflurane. A 27½-G needle and 1 cc syringe without an anticoagulant was used for the blood collection. Approximately 350 μL of whole blood was collected at each sampling time-point of 6 hours, 24 hours and 2, 5, 7, 9, 12, 14, 21, 28, 35 days after administration. Once collected, whole blood was immediately transferred to tubes containing K2 EDTA, inverted 10-15 times and immediately placed on ice. The tubes were centrifuged for 2 minutes at >14,000 g's (11500 RPMs using Eppendorf Centrifuge 5417C, F45-30-11 rotor) at room temperature to separate plasma. Plasma samples were transferred to labeled plain tubes (MICROTAINER®) and stored frozen at <−70° C.\n(§2) Drug concentrations in plasma samples were analyzed by liquid chromatography-mass spectroscopy using appropriate parameters for each compound. Half-life, volume of distribution, clearance, maximal concentration, and AUC were calculated by using WinNonlin Version 5.2_software (Pharsight, St. Louis, Mo.)."}, "[2]": {"system": "D-Amphetamine-induced locomotion", "assay": "Pharmacodynamic study in amphetamine-induced locomotion model", "conditions": "D-AMPH 1.5 mg/kg IP"}, "[3]": {"assay": "Pharmacokinetic study for pioglitazone, Compounds 1002 and 1008", "type": "in vivo, rats", "conditions": "rat, intramuscular; pioglitazone prodrug, crystalline material in 2% CMC, 0.2% Tween 20, PBS buffer pH 6.7; dose 67 mg/kg in table", "procedure": "as §1, §2\nPK profile of compounds 1002 and 1008 was compared to pioglitazone using a similar model as described above. 20 mg of pioglitazone or 20 mg equivilant of pioglitazone prodrug was administered intramuscularly."}, "[4]": {"conditions": "crystalline suspension or oil emulsion"}, "[5]": {"conditions": "oral oil solution (PO), 0.66, 10 and 20 mg/rat"}, "[6]": {"conditions": "solution in ethyl oleate, dose (mg/kg)"}, "[7]": {"conditions": "PO, at the higher dose of 20 mg"}}, "data": [{"smiles": "CC(=O)OCN1C(=O)CCc2ccc(OCCCCN3CCN(c4cccc(Cl)c4Cl)CC3)cc21", "note": "[Compound 1, (7-(4-(4-(2,3-dichlorophenyl)piperazin-1-yl)butoxy)-2-oxo-3,4-dihydroquinolin-1(2H)-yl)methyl acetate]", "values": [{"measurement": "AUC0-14", "setting": "[1]; [4]", "value": 1673, "unit": "ng·days/mL"}, {"measurement": "AUC0-T", "setting": "[1]; [4]", "value": 1938, "unit": "ng·days/mL"}]}, {"smiles": "CCCC(=O)OCN1C(=O)CCc2ccc(OCCCCN3CCN(c4cccc(Cl)c4Cl)CC3)cc21", "note": "[Compound 2, (7-(4-(4-(2,3-dichlorophenyl)piperazin-1-yl)butoxy)-2-oxo-3,4-dihydroquinolin-1(2H)-yl)methyl butyrate]", "values": [{"measurement": "AUC0-14", "setting": "[1]; [4]", "value": 1016.9, "unit": "ng·days/mL"}, {"measurement": "AUC0-T", "setting": "[1]; [4]", "value": 1139.8, "unit": "ng·days/mL"}]}, {"smiles": "CCCCCC(=O)OCN1C(=O)CCc2ccc(OCCCCN3CCN(c4cccc(Cl)c4Cl)CC3)cc21", "note": "[Compound 4, (7-(4-(4-(2,3-dichlorophenyl)piperazin-1-yl)butoxy)-2-oxo-3,4-dihydroquinolin-1(2H)-yl)methyl hexanoate]", "values": [{"measurement": "dose dependence of inhibition of distance travelled", "setting": "[2]; [5]", "value": "did not appear to be dose dependent"}, {"measurement": "inhibition of increase in total distance traveled caused by D-AMPH", "setting": "[2]; [5]", "value": "significantly inhibited the increases in distance traveled caused by D-AMPH"}, {"measurement": "AUC0-14", "setting": "[1]; [4]", "value": 1455.4, "unit": "ng·days/mL"}, {"measurement": "AUC0-T", "setting": "[1]; [4]", "value": 1678, "unit": "ng·days/mL"}]}, {"smiles": "CCCCCCCC(=O)OCN1C(=O)CCc2ccc(OCCCCN3CCN(c4cccc(Cl)c4Cl)CC3)cc21", "note": "[Compound 5, (7-(4-(4-(2,3-dichlorophenyl)piperazin-1-yl)butoxy)-2-oxo-3,4-dihydroquinolin-1(2H)-yl)methyl octanoate]", "values": [{"measurement": "AUC0-14", "setting": "[1]; [4]", "value": 1728.6, "unit": "ng·days/mL"}, {"measurement": "AUC0-T", "setting": "[1]; [4]", "value": 1742, "unit": "ng·days/mL"}]}, {"smiles": "CCCCCCCCCC(=O)OCN1C(=O)CCc2ccc(OCCCCN3CCN(c4cccc(Cl)c4Cl)CC3)cc21", "note": "[Compound 6, (7-(4-(4-(2,3-dichlorophenyl)piperazin-1-yl)butoxy)-2-oxo-3,4-dihydroquinolin-1(2H)-yl)methyl decanoate]", "values": [{"measurement": "AUC0-14", "setting": "[1]; [4]", "value": 1490.3, "unit": "ng·days/mL"}, {"measurement": "AUC0-T", "setting": "[1]; [4]", "value": 1678.1, "unit": "ng·days/mL"}, {"measurement": "AUC0-14", "setting": "[1]; [6]", "value": 67, "unit": "ng·days/mL"}, {"measurement": "AUC0-T", "setting": "[1]; [6]", "value": 327, "unit": "ng·days/mL"}]}, {"smiles": "CCCCCCCCCCCC(=O)OCN1C(=O)CCc2ccc(OCCCCN3CCN(c4cccc(Cl)c4Cl)CC3)cc21", "note": "[Compound 7, (7-(4-(4-(2,3-dichlorophenyl)piperazin-1-yl)butoxy)-2-oxo-3,4-dihydroquinolin-1(2H)-yl)methyl dodecanoate]", "values": [{"measurement": "inhibition of increase in total distance traveled caused by D-AMPH", "setting": "[2]; [7]", "value": "did appear to significantly inhibit increases in distance traveled caused by D-AMPH"}, {"measurement": "AUC0-14", "setting": "[1]; [4]", "value": 512.0, "unit": "ng·days/mL"}, {"measurement": "AUC0-T", "setting": "[1]; [4]", "value": 1169.5, "unit": "ng·days/mL"}]}, {"smiles": "CCCCCCCCCCCCCCCC(=O)OCN1C(=O)CCc2ccc(OCCCCN3CCN(c4cccc(Cl)c4Cl)CC3)cc21", "note": "[Compound 10, (7-(4-(4-(2,3-dichlorophenyl)piperazin-1-yl)butoxy)-2-oxo-3,4-dihydroquinolin-1(2H)-yl)methyl palmitate]", "values": [{"measurement": "AUC0-14", "setting": "[1]; [4]", "value": 302, "unit": "ng·days/mL"}, {"measurement": "AUC0-T", "setting": "[1]; [4]", "value": 786.6, "unit": "ng·days/mL"}]}, {"smiles": "O=C(OCN1C(=O)CCc2ccc(OCCCCN3CCN(c4cccc(Cl)c4Cl)CC3)cc21)c1ccccc1", "note": "[Compound 31, (7-(4-(4-(2,3-dichlorophenyl)piperazin-1-yl)butoxy)-2-oxo-3,4-dihydroquinolin-1(2H)-yl)methyl benzoate]", "values": [{"measurement": "AUC0-14", "setting": "[1]; [4]", "value": 819.0, "unit": "ng·days/mL"}, {"measurement": "AUC0-T", "setting": "[1]; [4]", "value": 997, "unit": "ng·days/mL"}]}, {"smiles": "CC(C)C(=O)OCN1C(=O)CCc2ccc(OCCCCN3CCN(c4cccc(Cl)c4Cl)CC3)cc21", "note": "[Compound 32, (7-(4-(4-(2,3-dichlorophenyl)piperazin-1-yl)butoxy)-2-oxo-3,4-dihydroquinolin-1(2H)-yl)methyl isobutyrate]", "values": [{"measurement": "AUC0-14", "setting": "[1]; [4]", "value": 1334.4, "unit": "ng·days/mL"}, {"measurement": "AUC0-T", "setting": "[1]; [4]", "value": 1486, "unit": "ng·days/mL"}]}, {"smiles": "O=C(OCN1C(=O)CCc2ccc(OCCCCN3CCN(c4cccc(Cl)c4Cl)CC3)cc21)C1CCC1", "note": "[Compound 34, (7-(4-(4-(2,3-dichlorophenyl)piperazin-1-yl)butoxy)-2-oxo-3,4-dihydroquinolin-1(2H)-yl)methyl cyclobutanecarboxylate]", "values": [{"measurement": "AUC0-14", "setting": "[1]; [4]", "value": 2050, "unit": "ng·days/mL"}, {"measurement": "AUC0-T", "setting": "[1]; [4]", "value": 2095.8, "unit": "ng·days/mL"}]}, {"smiles": "CNC(=O)OCN1C(=O)CCc2ccc(OCCCCN3CCN(c4cccc(Cl)c4Cl)CC3)cc21", "note": "[Compound 47, (7-(4-(4-(2,3-dichlorophenyl)piperazin-1-yl)butoxy)-2-oxo-3,4-dihydroquinolin-1(2H)-yl)methyl methylcarbamate]", "values": [{"measurement": "inhibition of increase in total distance traveled caused by D-AMPH", "setting": "[2]; [7]", "value": "did appear to significantly inhibit increases in distance traveled caused by D-AMPH"}, {"measurement": "AUC0-14", "setting": "[1]; [4]", "value": 113, "unit": "ng·days/mL"}, {"measurement": "AUC0-T", "setting": "[1]; [4]", "value": 176, "unit": "ng·days/mL"}]}, {"smiles": "CC(C)OC(=O)OCN1C(=O)CCc2ccc(OCCCCN3CCN(c4cccc(Cl)c4Cl)CC3)cc21", "note": "[Compound 48, (7-(4-(4-(2,3-dichlorophenyl)piperazin-1-yl)butoxy)-2-oxo-3,4-dihydroquinolin-1(2H)-yl)methyl isopropyl carbonate]", "values": [{"measurement": "AUC0-14", "setting": "[1]; [4]", "value": 2238, "unit": "ng·days/mL"}, {"measurement": "AUC0-T", "setting": "[1]; [4]", "value": 2264.6, "unit": "ng·days/mL"}]}, {"smiles": "O=C(OCN1C(=O)CCc2ccc(OCCCCN3CCN(c4cccc(Cl)c4Cl)CC3)cc21)N1CCOCC1", "note": "[Compound 49, (7-(4-(4-(2,3-dichlorophenyl)piperazin-1-yl)butoxy)-2-oxo-3,4-dihydroquinolin-1(2H)-yl)methyl morpholine-4-carboxylate]", "values": [{"measurement": "AUC0-14", "setting": "[1]; [4]", "value": 152, "unit": "ng·days/mL"}, {"measurement": "AUC0-T", "setting": "[1]; [4]", "value": 199.7, "unit": "ng·days/mL"}]}, {"smiles": "CCOC(=O)OCN1C(=O)CCc2ccc(OCCCCN3CCN(c4cccc(Cl)c4Cl)CC3)cc21", "note": "[Compound 79, (7-(4-(4-(2,3-dichlorophenyl)piperazin-1-yl)butoxy)-2-oxo-3,4-dihydroquinolin-1(2H)-yl)methyl ethyl carbonate]", "values": [{"measurement": "AUC0-14", "setting": "[1]; [4]", "value": 907.4, "unit": "ng·days/mL"}, {"measurement": "AUC0-T", "setting": "[1]; [4]", "value": 940, "unit": "ng·days/mL"}, {"measurement": "AUC0-14", "setting": "[1]; [6]", "value": 954, "unit": "ng·days/mL"}]}, {"smiles": "CCCCCCOC(=O)OCN1C(=O)CCc2ccc(OCCCCN3CCN(c4cccc(Cl)c4Cl)CC3)cc21", "note": "[Compound 81, (7-(4-(4-(2,3-dichlorophenyl)piperazin-1-yl)butoxy)-2-oxo-3,4-dihydroquinolin-1(2H)-yl)methyl hexyl carbonate]", "values": [{"measurement": "AUC0-14", "setting": "[1]; [6]", "value": 584, "unit": "ng·days/mL"}]}, {"smiles": "CCCCCCCCCCOC(=O)OCN1C(=O)CCc2ccc(OCCCCN3CCN(c4cccc(Cl)c4Cl)CC3)cc21", "note": "[Compound 82, decyl (7-(4-(4-(2,3-dichlorophenyl)piperazin-1-yl)butoxy)-2-oxo-3,4-dihydroquinolin-1(2H)-yl)methyl carbonate]", "values": [{"measurement": "AUC0-14", "setting": "[1]; [6]", "value": 204, "unit": "ng·days/mL"}]}, {"smiles": "CC(C)CCOC(=O)OCN1C(=O)CCc2ccc(OCCCCN3CCN(c4cccc(Cl)c4Cl)CC3)cc21", "note": "[Compound 85, (7-(4-(4-(2,3-dichlorophenyl)piperazin-1-yl)butoxy)-2-oxo-3,4-dihydroquinolin-1(2H)-yl)methyl isopentyl carbonate]", "values": [{"measurement": "AUC0-14", "setting": "[1]; [4]", "value": 1233.9, "unit": "ng·days/mL"}, {"measurement": "AUC0-T", "setting": "[1]; [4]", "value": 1348, "unit": "ng·days/mL"}]}, {"smiles": "CCCC(=O)OCN1C(=O)SC(Cc2ccc(OCCc3ccc(CC)cn3)cc2)C1=O", "note": "(stereo not shown) [Compound 1002, (5-(4-(2-(5-ethylpyridin-2-yl)ethoxy)benzyl)-2,4-dioxothiazolidin-3-yl)methyl butyrate]", "values": [{"measurement": "AUC0-14", "setting": "[3]", "value": 5350, "unit": "ng·days/mL"}, {"measurement": "AUC0-T", "setting": "[3]", "value": 5972, "unit": "ng·days/mL"}]}, {"smiles": "CCCCCCCCCCCCCCCC(=O)OCN1C(=O)SC(Cc2ccc(OCCc3ccc(CC)cn3)cc2)C1=O", "note": "(stereo not shown) [Compound 1008, (5-(4-(2-(5-ethylpyridin-2-yl)ethoxy)benzyl)-2,4-dioxothiazolidin-3-yl)methyl palmitoate]", "values": [{"measurement": "AUC0-14", "setting": "[3]", "value": 5000, "unit": "ng·days/mL"}, {"measurement": "AUC0-T", "setting": "[3]", "value": 6763, "unit": "ng·days/mL"}]}]}
